EP0496332A1, “Alpha-aminoquinolinoyl-[3]-penicillines, process for their preparation and their use as antibacterial agents” (ARZNEIMITTELWERK DRESDEN GmbH, priority 1991, dated 1992)
Converted amounts (≈) assume the structure as drawn.

Key:
Assay in all cases: In-vitro test, inhibitory concentration by dilution series
Type in all cases: cell-based
Bacillus subtilis SG 119 = details: I = Bacillus subtilis SG 119, step = concentration with no visible growth; for MIC: SG119, read-out: Hemmkonzentration nach Verdünnung (Verdünnungsreihe) (converted)
Excerpt: (§1) Die antibiotische Wirksamkeit erfindungsgemäßer Verbindungen wurde in der üblichen Weise durch Ermittlung der Hemmkonzentrationen nach Verdünnung ermittelt.
(§2) Die erhaltenen Ergebnisse sind in der nachstehenden Tabelle zusammengefaßt.

Citrobacter freudii = details: XIV = Citrobacter freudii, Laborstämme, step = concentration with no visible growth; for MIC: read-out: Hemmkonzentration nach Verdünnung (Verdünnungsreihe) (converted)
Excerpt: as §1, §2

Enterobacter cloacae = details: XIII = Enterobacter cloacae, Laborstämme, step = concentration with no visible growth; for MIC: read-out: Hemmkonzentration nach Verdünnung (Verdünnungsreihe) (converted)
Excerpt: as §1, §2

Enterokokken = details: XI = Enterokokken, Laborstämme, step = concentration with no visible growth; for MIC: read-out: Hemmkonzentration nach Verdünnung (Verdünnungsreihe) (converted)
Excerpt: as §1, §2

Escherichia coli = details: XII = Escherichia coli, Laborstämme, step = concentration with no visible growth; for MIC: read-out: Hemmkonzentration nach Verdünnung (Verdünnungsreihe) (converted)
Excerpt: as §1, §2

[1] = tested on: Klebsiella pneumoniae SG 117; details: VII = Klebsiella pneumoniae SG 117, step = concentration with no visible growth; for MIC: SG117, read-out: Hemmkonzentration nach Verdünnung (Verdünnungsreihe) (converted)
Excerpt: as §1, §2

Proteus vulgaris OX 19 = details: III = Proteus vulgaris OX 19, step = concentration with no visible growth; for MIC: OX19, read-out: Hemmkonzentration nach Verdünnung (Verdünnungsreihe) (converted)
Excerpt: as §1, §2

[2] = tested on: Pseudomonas aeruginosa NCTC 10701; details: IV = Pseudomonas aeruginosa NCTC 10701, step = concentration with no visible growth; for MIC: NCTC10701, read-out: Hemmkonzentration nach Verdünnung (Verdünnungsreihe) (converted)
Excerpt: as §1, §2

[3] = tested on: Pseudomonas aeruginosa SG 137; details: V = Pseudomonas aeruginosa SG 137, step = concentration with no visible growth; for MIC: SG137, read-out: Hemmkonzentration nach Verdünnung (Verdünnungsreihe) (converted)
Excerpt: as §1, §2

[4] = tested on: Salmonella gallinarium ATCC 9184; details: ATCC9184; VI = Salmonella gallinarium ATCC 9184; step = concentration with no visible growth; read-out: Hemmkonzentration nach Verdünnung (Verdünnungsreihe) (converted)
Excerpt: as §1, §2

[5] = tested on: Serratia marcescens SG 621; details: VIII = Serratia marcescens SG 621, step = concentration with no visible growth; for MIC: SG621, read-out: Hemmkonzentration nach Verdünnung (Verdünnungsreihe) (converted)
Excerpt: as §1, §2

[6] = tested on: Staphylococcus aureus SG 511; details: II = Staphylococcus aureus SG 511, step = concentration with no visible growth; for MIC: SG511, read-out: Hemmkonzentration nach Verdünnung (Verdünnungsreihe) (converted)
Excerpt: as §1, §2

Staphylococcus aureus = details: IX = Staphylococcus aureus, Laborstämme, step = concentration with no visible growth; for MIC: read-out: Hemmkonzentration nach Verdünnung (Verdünnungsreihe) (converted)
Excerpt: as §1, §2

[7] = tested on: Staphylococcus epidermidis; details: X = Staphylococcus epidermidis, Laborstämme, step = concentration with no visible growth; for MIC: read-out: Hemmkonzentration nach Verdünnung (Verdünnungsreihe) (converted)
Excerpt: as §1, §2

| Structure (SMILES) | MIC (Bacillus subtilis SG 119) [µM] | MIC (Citrobacter freudii) [µM] | MIC (Enterobacter cloacae) [µM] | MIC (Enterokokken) [µM] | MIC (Escherichia coli) [µM] | MIC [1] [µM] | MIC (Proteus vulgaris OX 19) [µM] | MIC [2] [µM] | MIC [3] [µM] | MIC [4] [µM] | MIC [5] [µM] | MIC [6] [µM] | MIC (Staphylococcus aureus) [µM] | MIC [7] [µM] | other results |
| --- | --- | --- | --- | --- | --- | --- | --- | --- | --- | --- | --- | --- | --- | --- | --- |
| CC1(C)S[C@@H]2[C@H](NC(=O)[C@H](N)c3ccccc3)C(=O)N2[C@H]1C(=O)O [Ampicillin, reference compound] | 0.2 (≈ 0.0699 µg/mL) | > 200 | > 200 | 6.25 (≈ 2.18 µg/mL) | 12.5 (≈ 4.37 µg/mL) | 12.5 (≈ 4.37 µg/mL) | 12.5 (≈ 4.37 µg/mL) | 200 (≈ 69.9 µg/mL) | > 200 | 0.78 (≈ 0.273 µg/mL) | 50 (≈ 17.5 µg/mL) | 0.78 (≈ 0.273 µg/mL) | 12.5 (≈ 4.37 µg/mL) | 6.25 (≈ 2.18 µg/mL) | – |
| CCOC(=O)Oc1c(C(=O)N[C@@H](C(=O)N[C@@H]2C(=O)N3[C@@H]2SC(C)(C)[C@@H]3C(=O)O)c2ccccc2)cnc2cc(COc3ccc(Br)cc3)c(CC)cc12 [Beisp. 2, 6-[D-(-)-α-([4'-Ethoxycarbonyloxy-6'-ethyl-7'-(4''-brom)-phenoxymethylen-chinolinoyl-3']-carboxamido)-α-phenylacetamido]-penicillansäure-Natriumsalz] | 3.12 (≈ 2.51 µg/mL) | 6.25 (≈ 5.04 µg/mL) | 6.25 (≈ 5.04 µg/mL) | 12.5 (≈ 10.1 µg/mL) | 1.56 (≈ 1.26 µg/mL) | 0.78 (≈ 0.628 µg/mL) | 0.78 (≈ 0.628 µg/mL) | 6.25 (≈ 5.04 µg/mL) | 12.5 (≈ 10.1 µg/mL) | 1.56 (≈ 1.26 µg/mL) | 1.56 (≈ 1.26 µg/mL) | 1.56 (≈ 1.26 µg/mL) | 25 (≈ 20.1 µg/mL) | 12.5 (≈ 10.1 µg/mL) | – |
| CCOC(=O)Oc1c(C(=O)N[C@@H](C(=O)N[C@@H]2C(=O)N3[C@@H]2SC(C)(C)[C@@H]3C(=O)O)c2ccccc2)cnc2cc(COc3ccc(C)cc3)c(CC)cc12 [Beisp. 3, 6-[D-(-)-α-([4'-Ethoxycarbonyloxy-6'-ethyl-7'-(4''-methyl)-phenoxymethylen-chinolinoyl-3']-carboxamido)-α-phenylacetamido]-penicillansäure-Natriumsalz] | 1.56 (≈ 1.16 µg/mL) | 6.25 (≈ 4.63 µg/mL) | 6.25 (≈ 4.63 µg/mL) | 25 (≈ 18.5 µg/mL) | 1.56 (≈ 1.16 µg/mL) | 0.78 (≈ 0.578 µg/mL) | 0.39 (≈ 0.289 µg/mL) | 3.12 (≈ 2.31 µg/mL) | 12.5 (≈ 9.26 µg/mL) | 3.12 (≈ 2.31 µg/mL) | 0.78 (≈ 0.578 µg/mL) | 0.78 (≈ 0.578 µg/mL) | 50 (≈ 37 µg/mL) | 12.5 (≈ 9.26 µg/mL) | – |
| CCCCOCc1cc2ncc(C(=O)N[C@@H](C(=O)N[C@@H]3C(=O)N4[C@@H]3SC(C)(C)[C@@H]4C(=O)O)c3ccccc3)c(OC(=O)OCC)c2cc1CC [Beisp. 4, 6-[D-(-)-α-([4'-Ethoxycarbonyloxy-6'-ethyl-7'-n-butoxymethylen-chinolinoyl-3']-carboxamido)-α-phenylacetamido]-penicillansäure-Natriumsalz] | 0.39 (≈ 0.276 µg/mL) | 6.25 (≈ 4.42 µg/mL) | 3.12 (≈ 2.21 µg/mL) | 6.25 (≈ 4.42 µg/mL) | 1.56 (≈ 1.1 µg/mL) | 1.56 (≈ 1.1 µg/mL) | 0.78 (≈ 0.551 µg/mL) | 1.56 (≈ 1.1 µg/mL) | 3.12 (≈ 2.21 µg/mL) | 1.56 (≈ 1.1 µg/mL) | 1.56 (≈ 1.1 µg/mL) | 0.78 (≈ 0.551 µg/mL) | 12.5 (≈ 8.84 µg/mL) | 3.12 (≈ 2.21 µg/mL) | – |
| CC(C)COC(=O)Oc1c(C(=O)N[C@@H](C(=O)N[C@@H]2C(=O)N3[C@@H]2SC(C)(C)[C@@H]3C(=O)[O-])c2ccccc2)cnc2c1ccc1ccccc12.[Na+] [Beisp. 12, 6-[D-(-)-α-([4'-Isobutoxycarbonyloxybenzo[1,2n]chinolinoyl-3']-carboxamido)-α-phenylacetamido]-penicillansäure-Natriumsalz] | – | – | – | – | – | – | – | – | – | – | – | – | – | – | Hemmkonzentration nach Verdünnung (Verdünnungsreihe) (Bacillus subtilis SG 119): 7 (= bei 0,00312 mM); Hemmkonzentration nach Verdünnung (Verdünnungsreihe) (Citrobacter freudii): 6 (= bei 0,00625 mM); Hemmkonzentration nach Verdünnung (Verdünnungsreihe) (Enterobacter cloacae): 6 (= bei 0,00625 mM); Hemmkonzentration nach Verdünnung (Verdünnungsreihe) (Enterokokken): 5 (= bei 0,0125 mM); Hemmkonzentration nach Verdünnung (Verdünnungsreihe) (Escherichia coli): 7 (= bei 0,00312 mM); Hemmkonzentration nach Verdünnung (Verdünnungsreihe) [1]: 9 (= bei 0,00078 mM); Hemmkonzentration nach Verdünnung (Verdünnungsreihe) (Proteus vulgaris OX 19): 10 (= bei 0,00039 mM); Hemmkonzentration nach Verdünnung (Verdünnungsreihe) [2]: 7 (= bei 0,00312 mM); Hemmkonzentration nach Verdünnung (Verdünnungsreihe) [3]: 5 (= bei 0,0125 mM); Hemmkonzentration nach Verdünnung (Verdünnungsreihe) [5]: 7 (= bei 0,00312 mM); Hemmkonzentration nach Verdünnung (Verdünnungsreihe) [6]: 9 (= bei 0,00078 mM); Hemmkonzentration nach Verdünnung (Verdünnungsreihe) (Staphylococcus aureus): 6 (= bei 0,00625 mM); Hemmkonzentration nach Verdünnung (Verdünnungsreihe) [7]: 7 (= bei 0,00312 mM) |
